Holding throughout (assay type): cell-based, human
In data set [1] the test system is normal hematopoietic progenitor cells (normal bone marrow MNC). The data set can be described thus: CFU-GM colony formation of normal hematopoietic progenitor cells. The note with it: Table 3; 40 μg/ml at 0 h, 20 μg/ml 18 h later; 12 days; mean ± SD; control 263 ± 10. The text has this:
(§1) Normal bone marrow mononuclear cells (MNC) were obtained by aspiration from consenting volunteers and enriched for hematopoietic progenitors as previously reported by numerous investigators (Zamecnick et al., Proc. Natl. Acad. Sci. U.S.A. 83, 4143-4147 (1986); Caracciolo et al., J. Clin. Invest. 85, 55-61 (1990)). In brief, marrow cells were subjected to Ficoll-Hypaque density gradient sedimentation and then depleted of adherent monocyte-macrophage and T-lymphocytes by adherence to plastic Petri dishes and rosetting with neuraminidase-treated sheep red blood cells, respectively. Philadelphia chromosome-positive blast cells were isolated by Ficoll-Hypaque density gradient sedimentation from a CML patient in blast crisis (L-6 type junction). […] The residual non-blast cells had the morphological appearance of small lymphocytes. 25,000 MNC and 25,000 CML blast cells were combined and incubated with bcr-abl breakpoint-Specific antisense oligomer (SEQ ID NO:3) (40 μg/ml at h 0; 20 μg/ml 18 hours later) or with a 4 nucleotide mismatch bcr-abl antisense oligomer (SEQ ID NO:2) (40 μg/ml at 0 h; 20 μg/ml 18 hours later) or left untreated. […] At the end of the incubation period colonies were counted. […]

For data set [2], the system named is Philadelphia chromosome-positive blast cells of CML patients in blast crisis, L-6 (b2a2) type junction. The data set can be described thus: Colony formation of CML blast crisis patient cells expressing the b2a2 (L-6) junction. The settings on record: 10 days in semi-solid culture (FIG. 2). As to the method: Leukemia cells were obtained from the marrow of the posterior iliac crest of five CML patients in blast crisis. The cells were diluted 1:2 in Iscove's modified Dulbecco medium (IMDM) to form a cell suspension. Philadelphia chromosome-positive blast cells were isolated by Ficoll-Hypaque density gradient sedimentation to remove non-mononuclear cells. Accordingly, the bone marrow cell suspension was gently overlayed on a Histopaque density gradient (Sigma Chemical Co., St. Louis, Mo.) in a 2:1 ratio, and then spun down for 30 min. at 1500 rpm and 18° C. Cells remaining in the interface layer after centrifugation were collected using a Pasteur pipet, and washed with IMDM at 1000 rpm and […] for 10 min.
Cells plated into methyl cellulose semisolid media after 7-11 days of culture were recovered from the medium. Total RNA was isolated according to the procedure of Chomczynski et al, Anal. Biochem. 162, 156-159 (1987). The RNA ([…]) isolated from one patient having particularly exuberant cell growth was annealed with the 3' RT-PCR primer GCTTCACACC ATTCCCCATTGT (SEQ ID NO:10) complementary to 22 nucleotides of c-abl exon 2 for 30 minutes at 37° C. Following annealing of the 3' primer, the RNA was reverse transcribed with 500 units of Moloney murine leukemia virus reverse transcriptase at 37° C. for 1 hour. The reaction was stopped and the mixture diluted in 1 x Thermus aquaticus (Taq) polymerase buffer. A 5' primer, the 22 nucleotide oligomer CACAGCATTCCGCTGACCATCA (SEQ ID NO: 11) complementary to bcr exon 2 and additional c-abl exon 2 3' primer were added to a final concentration of 2 ng/μl each with 2.5 units of Taq polymerase for amplification of the cDNA fragments. Sixty cycles of PCR were performed in a Perkin Elmer Thermal Cycler by annealing at 55° C., synthesizing at 72° C. and denaturing at 95° C. The amplification product, corresponding to the b2a2 junction, was thereafter separated on a 2% agarose gel. The band containing the bcr-abl fragment was cut out and cleaned according to a standard technique utilizing a GENE-CLEAN™ kit (Bio 101, Inc.), cloned by blunt end ligation in the BLUESCRIPT SK vector (Stratagene Cloning Systems) linearized by SMA I digestion. Several individual clones were then sequenced using the SEQUENASE™ version 2.0 enzyme (United States Biochemical Corp., Cleveland, Ohio), according to the sequence protocol recommended by the manufacturer. Accordingly, the denatured bcr-abl DNA fragments were annealed with specific primers which flank the cloning site in the BLUESCRIPT SK vector, in the presence of SEQUENASE™ reaction buffer for 15 min. at 37° C. The primer-annealed fragments were incubated at room temperature with SEQUENASE™ version 2.0 enzyme and α-S^35 dAT at 37° C. Subsequently, labelled template-primer complexes were transferred to tubes containing A, T, C and G nucleotides (one nucleotide per tube) and incubated 5-30 min. at 37° C. The samples were then loaded on a previously prepared acrylamide gel, and run for approximately 10 hours. The sequencing gel was dryed, and the film exposed O/N. Sequence analysis of several of the individual clones identified the bcr-abl junction as having the cDNA sequence shown in FIG. 1 (SEQ ID NO:1). The arrow in the figure indicates the bcr-abl breakpoint junction, and the box delineates the 18 nucleotides corresponding to the junction, which forms a preferred target sequence for hybridization of antisense oligomer. The junction corresponds precisely to the L-6 type breakpoint reported by Shtivelman et al., Cell 47, 277 (1986), in which the bcr exon 2 is fused to c-abl exon 2.
In a similar manner, L-6 type junctions were identified in the remaining CML blast crisis patients by hybridization of RT-PCR amplification products derived from blast crisis CML RNA using a synthetic 18-mer GAAGGGCTTC TTCCTTAT (SEQ ID NO:3) specific for the 18-nucleotide target sequence of the L-6 bcr-abl junction. […]

For data set [3], the system named is 1:1 mix of normal MNC and CML blast crisis cells. Nature of the data set: Morphology (Giemsa staining) of cells from residual colonies.
Source text: as §1

Data set [4] relates to CML blast crisis cells (L-6 type junction). The data set can be described thus: CFU-L colony formation of CML blast crisis cells (Example 3). The settings on record: Table 3; 40 μg/ml at 0 h, 20 μg/ml 18 h later; 12 days; mean ± SD; control 806 ± 70. The text has this: Normal bone marrow mononuclear cells (MNC) were obtained by aspiration from consenting volunteers and enriched for hematopoietic progenitors as previously reported by numerous investigators (Zamecnick et al., Proc. Natl. Acad. Sci. U.S.A. 83, 4143-4147 (1986); Caracciolo et al., J. Clin. Invest. 85, 55-61 (1990)). In brief, marrow cells were subjected to Ficoll-Hypaque density gradient sedimentation and then depleted of adherent monocyte-macrophage and T-lymphocytes by adherence to plastic Petri dishes and rosetting with neuraminidase-treated sheep red blood cells, respectively. Philadelphia chromosome-positive blast cells were isolated by Ficoll-Hypaque density gradient sedimentation from a CML patient in blast crisis (L-6 type junction). […] The residual non-blast cells had the morphological appearance of small lymphocytes. 25,000 MNC and 25,000 CML blast cells were combined and incubated with bcr-abl breakpoint-Specific antisense oligomer (SEQ ID NO:3) (40 μg/ml at h 0; 20 μg/ml 18 hours later) or with a 4 nucleotide mismatch bcr-abl antisense oligomer (SEQ ID NO:2) (40 μg/ml at 0 h; 20 μg/ml 18 hours later) or left untreated. Four hours after the second addition of oligonucleotides to the cultures, cells were seeded into duplicate methylcellulose dishes containing IL-3 (20 U/ml) and GM-CSF (5 ng/ml) and allowed to grow for an additional 12 days. At the end of the incubation period colonies were counted.
The data is shown in Table 3, below, wherein values represent mean ± standard deviation of duplicate control cultures (no oligonucleotide added) and duplicate experimental cultures from two separate experiments. Colony forming unit-granulocyte macrophage (CFU-GM)-derived colonies consisted of 50 or more cell aggregates, while CFU-GM-derived clusters were defined as aggregates of between 4 and 40 cells. These are normal hematopoietic colonies derived from progenitors with the capability to differentiate along the granulocytic and macrophage lineages. […]

Data set [5] deals with 1:1 mixtures of normal marrow progenitors and CML blast crisis cells. The data set can be described thus: CFU-GM + CFU-L colony formation of 1:1 mixtures of normal marrow progenitors and CML blast crisis cells. The settings on record: Table 3; 1:1 mixture; 40 μg/ml at 0 h, 20 μg/ml 18 h later; 12 days; mean ± SD; control 978 ± 24.
Source text: as §1

Turning to “SEQ ID NO:2: mismatched (4 nucleotide substitutions) bcr-abl antisense oligomer GAACGGCATC TACGTTAT (antisense GAACGGCATCTACGTTAT; further chemistry not given here) [reference compound]”, the “Colonies or Clusters, CFU-GM” value in data set [1] is listed as 265 ± 6 colonies or clusters. In data set [2], the “colonies of blast cells formed” value is recorded as “formed numerous colonies of blast cells”. In addition, in data set [3], the “morphology of cells isolated from residual colonies” value is “heterogeneous and consisted of blast cells and a variety of differentiating elements”. In data set [4], the “Colonies or Clusters, CFU-L (colonies formed from CML blast crisis cells)” value is listed as 786 ± 23 colonies or clusters. For the same substance, the “Colonies or Clusters, CFU-GM + CFU-L” value in data set [5] is recorded as 900 ± 46 colonies or clusters.
